# Test results reported in paper PMC8458281, “Computational modeling and experimental validation of the EPI-X4/CXCR4 complex allows rational design of small peptide antagonists” (Communications Biology, 2021).
# No end group written: not given here.
# Tested on: zebrafish embryos
# Assay: Toxicity assay in zebrafish embryos
# Type: in vivo
# Details: embryos exposed 24 h from 24 hpf to 3, 30 and 300 µM in E3; scored at 48 hpf for cytotoxicity, developmental toxicity, cardiotoxicity, neurotoxicity; two independent assays, 10 × 3 embryos each
# Protocol: Finally, we evaluated the toxicity of EPI-X4 JM#21 408–414-NH2 in zebrafish embryos, a widely used in vivo model for toxicity studies. We exposed embryos for 24 h starting at 24 h post fertilization (hpf), when most organ systems have already developed and are functional. Transparency of the embryos allows for evaluation by light microscopy not only of mortality, but also of sublethal cytotoxicity (necrosis, lysis), developmental toxicity (developmental delay, malformations), or toxicity affecting specific organ systems, in particular cardiotoxicity (heart edema, reduced circulation), and neurotoxicity (reduced touch escape response).
# Wild-type zebrafish embryos were dechorionated at 24 hpf using digestion with 1 mg/ml pronase (Sigma) in E3 medium ([…]). […] At 48 hpf (after 24 h of incubation) embryos were scored in a stereomicroscope for signs of cytotoxicity (lysis and/or necrosis), developmental toxicity (delay and/or malformations), or cardiotoxicity (heart edema and/or reduced or absent circulation). Each embryo was also touched with a needle, and reduced or absent touch responses (escape movements) were evaluated as signs of neurotoxicity if and only if no signs of cytotoxicity were present in the same embryo. […]
# T2: severe damage so that other phenotypes cannot be assessed (L3, L4, Nec2)
substance,measurement,value
ILRWSRK-NH2 [JM#21 408–414-NH2],toxicity in zebrafish embryos,nontoxic even at high concentrations
